Data: patent publication US20090281133A1, “Heterocyclic antiviral compounds” (Roche Palo Alto LLC, priority 2008, published 2009)

Tests used:
Human CCR5 receptor = target: T1, Human CCR5 receptor (Homo sapiens, UniProt P51681); experiment: Human CCR5 receptor-ligand binding assay; conditions: CHO-Gα16-hCCR5 cells, 125I RANTES binding
T1 construct: expressed in transfected cells
Source text: Human CCR5 Receptor-Ligand Binding Assay Protocol
Human CCR5 receptor (Genebank ID: 29169292) was cloned into mammalian expression vector, pTarget (Promega). The construct was transfected into CHO-Gα16 cells by using Fugene Reagent (Roche). Clones were selected under antibiotic pressure (G418 and Hygromycin) and sorted 4 times with a fluorescence activates cell sorter and a monoclonal antibody specific for CCR5 receptor (BD Biosciences Pharmigen, Mab 2D7, Cat. No. 555993). The clone with highest expression (100,000 copies per cell) was chosen for the binding assays.
Adherent cells in […] tissue culture flask (˜90% confluent) were harvested using 1 mM EDTA in PBS (phosphate-buffered saline) without Ca^2+ and Mg^2+. Cells were washed twice with PBS containing no Ca^2+ and Mg^2+. CHO-Gα16-hCCR5 cells were then resuspended (1×10^6/mL) in ice cold binding buffer (50 mM HEPES, 1 mM CaCl2, 5 mM MgCl2, 0.5% BSA, 0.05% NaN3, pH 7.24), pH 7.4), supplemented with freshly made 0.5% BSA and 0.05% NaN3.
Eighty μl CHO-Gα16-hCCR5 (1×10^6/mL) cells were added to 96 well plates. All dilutions were made in binding buffer (50 mM HEPES, 1 mM CaCl2, 5 mM MgCl2, 0.5% BSA, 0.05% NaN3, pH 7.24).
The plates were incubated on a cell shaker at RT for 2 h with a final concentration of 0.1 nM ^125I RANTES or ^125I MIP-1α or ^125I MIP-1β. The compound dilutions were made in PBS, 1% BSA. Total reaction volume was 100 μl per well. The test compounds were added to the cells prior to the addition of radioligand.
After incubation, the cells were harvested onto GF/C filter plates using Packard cell harvester. Filters were pretreated with 0.3% PEI/0.2% BSA for 30 min. The filter plate was washed rapidly 5 times with 25 mM HEPES, 500 mM NaCl, 1 mM CaCl2 and 5 mM MgCl2 adjusted to pH 7.1. Plates were dried in oven (70° C.) for 20 min, added with 40 μl scintillation fluid and sealed with Packard TopSeal-A. Packard Top Count was used to measure of the radioactivity for 1 min per well.
Total binding was determined with control wells added with radioisotope and buffer and the non-specific binding was determined using an excess cold RANTES to some of the control wells. Specific binding was determined by subtracting the non-specific form total binding. Results are expressed as the percentage of specific ^125I RANTES binding. IC50 values were determined using varying concentrations of the test ligand in triplicates and the data was analyzed using GraphPad Prism (GraphPad, San Diego, Calif.).

[1] = test system: CCR5-mediated fusion of Hela-R5 cells with CEM-NKr-CCR5-Luc cells; experiment: CCR5-mediated cell-cell fusion (CCF) assay; format: cell-based; conditions: luciferase readout, 24 hrs co-culture
Method: CCF assay was performed as described before (C. Ji, J. Zhang, N. Cammack and S. Sankuratri, J. Biomol. Screen. 2006 11(6):652-663). Hela-R5 cells (express gp160 from R5-tropic virus and HIV-1 Tat) were plated in 384 well white culture plates (BD Bioscience, Palo Alto, Calif.) at 7.5×10^3 cells per well in phenol red-free Dulbecco's Modified Eagle Medium (DMEM) supplemented with 10% FBS, 1× Pen-Strep, 300 μg/mL G418, 100 μg/mL hygromycin, and 1 μg/mL Doxycycline (Dox) (BD Bioscience, Palo Alto, Calif.), using Multimek (Beckman, Fullerton, Calif.) and incubated at 37° C. overnight to induce the expression of gp160. Ten μL diluted compounds in medium containing 5% DMSO were added to the cells, followed by the addition of CEM-NKr-CCR5-Luc (obtained from NIH AIDS Research & Reference Reagents Program) that expresses CD4 and CCR5 and carries a HIV-2 long terminal repeat (LTR)-driven luciferase reporter gene at 1.5×10^4 cells/15 μL/well and incubated for 24 hrs. At the end of co-culture, 15 μL of Steady-Glo luciferase substrate was added into each well, and the cultures were sealed and gently shaken for 45 min. The luciferase activity were measured for 10 sec per well as luminescence by using 16-channel TopCount NXT (PerkinElmer, Shelton, Conn.) with 10 min dark adaptation and the readout is count per second (CPS). […]

[2] = test system: collagen induced arthritis; conditions: collagen-induced arthritis model; cited from earlier work
HIV = conditions: cited from earlier work

T1 sequence (P51681 whole entry): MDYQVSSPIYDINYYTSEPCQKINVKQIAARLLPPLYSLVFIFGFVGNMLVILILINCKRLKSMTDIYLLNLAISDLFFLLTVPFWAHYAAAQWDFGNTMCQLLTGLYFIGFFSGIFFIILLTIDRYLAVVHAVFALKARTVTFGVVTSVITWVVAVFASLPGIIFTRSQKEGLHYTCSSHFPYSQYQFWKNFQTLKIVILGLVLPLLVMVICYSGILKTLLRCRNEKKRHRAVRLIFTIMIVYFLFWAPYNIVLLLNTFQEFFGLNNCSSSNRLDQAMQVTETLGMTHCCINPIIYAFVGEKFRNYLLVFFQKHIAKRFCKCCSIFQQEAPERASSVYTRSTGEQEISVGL

| Molecule | IC50 (Human CCR5 receptor) | also measured |
| --- | --- | --- |
| CCCCC1CN(C[C@H]2CC[C@H](OCC)CC2)C(=O)CC12CCN(C1(C)CCN(C(=O)c3c(C)ncnc3C)CC1)CC2 (mixture of isomers) [I-1, 5-Butyl-9-[1-(4,6-dimethyl-pyrimidine-5-carbonyl)-4-methyl-piperidin-4-yl]-3-(4-ethoxy-cyclohexylmethyl)-3,9-diaza-spiro[5.5]undecan-2-one] | 30.4 nM | IC50 [1]: < 2.5 nM |
| CCCCC1CN(CC2CCC(OCC)CC2)C(=O)CC12CCN(C1(C)CCN(C(=O)c3c(C)ncnc3C)CC1)CC2 (single isomer, unassigned) [I-2] | 26.8 nM |  |
| CCCCC1CN(CC2CCC(OCC)CC2)C(=O)CC12CCN(C1(C)CCN(C(=O)c3c(C)ncnc3C)CC1)CC2 (single isomer, unassigned) [I-3] | 32.9 nM |  |
| CCCCC1CN(CC2CCOCC2)C(=O)CC12CCN(C1(C)CCN(C(=O)c3c(C)ncnc3C)CC1)CC2 (centres unmarked) [I-4] | 17.2 nM | melting point: 92.8 to 100.1 °C |
| CCCCC1CN(C[C@H]2CC[C@H](OC)CC2)C(=O)CC12CCN(C1(C)CCN(C(=O)c3c(C)ncnc3C)CC1)CC2 (some centres unmarked) [I-5] | 20.8 nM |  |
| CCCCC1CN(CC2CCN(S(C)(=O)=O)CC2)C(=O)CC12CCN(C1(C)CCN(C(=O)c3c(C)ncnc3C)CC1)CC2 (centres unmarked) [I-6] | 16.9 nM |  |
| CCCCC1CN(CC2CCN(C(C)=O)CC2)C(=O)CC12CCN(C1(C)CCN(C(=O)c3c(C)ncnc3C)CC1)CC2 (centres unmarked) [I-7] | 51.7 nM |  |
| CCCCC1CN(CC2CCN(C(=O)OC)CC2)C(=O)CC12CCN(C1(C)CCN(C(=O)c3c(C)ncnc3C)CC1)CC2 (centres unmarked) [I-8, 4-{1-Butyl-9-[1-(4,6-dimethyl-pyrimidine-5-carbonyl)-4-methyl-piperidin-4-yl]-4-oxo-3,9-diaza-spiro[5.5]undec-3-ylmethyl}-piperidine-1-carboxylic acid methyl ester] | 24.4 nM |  |
| CCCCC1CN(C[C@H]2CC[C@@H](OCC)CC2)C(=O)CC12CCN(C1(C)CCN(C(=O)c3c(C)ncnc3C)CC1)CC2 (some centres unmarked) [I-9] | 32 nM |  |
| CCCCC1CN(C[C@@H]2CCOC2)C(=O)CC12CCN(C1(C)CCN(C(=O)c3c(C)ccnc3C)CC1)CC2 (some centres unmarked) [I-10] | 24.9 nM |  |
| CCCCC1CN(CC2CCCCO2)C(=O)CC12CCN(C1(C)CCN(C(=O)c3c(C)ncnc3C)CC1)CC2 (centres unmarked) [I-11] | 24.6 nM |  |
| CCCCC1CN(CC2CCOCC2)C(=O)CC12CCN(C1(C)CCN(C(=O)c3c(C)ccnc3C)CC1)CC2 (centres unmarked) [I-12] | 13.7 nM |  |
| CCCCC1CN(CC2CCOCC2)C(=O)CC12CCN(C1(C)CCN(C(=O)c3c(C)cc(C#N)nc3C)CC1)CC2 (centres unmarked) [I-13] | 19.7 nM |  |
| CCCCC1CN(C[C@H]2CCOC2)C(=O)CC12CCN(C1(C)CCN(C(=O)c3c(C)ccnc3C)CC1)CC2 (stereo partly drawn) [I-14, 5-Butyl-9-[1-(2,4-dimethyl-pyridine-3-carbonyl)-4-methyl-piperidin-4-yl]-3-[(R)-1-(tetrahydro-furan-3-yl)methyl]-3,9-diaza-spiro[5.5]undecan-2-one] | 17.7 nM |  |
| CCCCC1CN(CC2CCC(O)CC2)C(=O)CC12CCN(C1(C)CCN(C(=O)c3c(C)ccnc3C)CC1)CC2 (centres unmarked) [I-15, 5-Butyl-9-[1-(2,4-dimethyl-pyridine-3-carbonyl)-4-methyl-piperidin-4-yl]-3-(4-hydroxy-cyclohexylmethyl)-3,9-diaza-spiro[5.5]undecan-2-one] | 30.5 nM |  |
| Cc1ccc(-c2ccc3c(c2)C=C(C(=O)Nc2ccc(C[N+](C)(C)C4CCOCC4)cc2)CCC3)cc1.[Cl-] [TAK-779] |  | incidence and severity of arthritis [2]: reduce both the incidence and severity of arthritis; infiltration of inflammatory CCR5+ T-cells into the joint [2]: inhibited |
| RANTES: CC chemokine, naturally occurring chemokine that can stimulate the CCR5 receptor (protein, UniProt P13501 24-91, looked up) C-C motif chemokine 5: SPYSSDTTPCCFAYIARPLPRAHIKEYFYTSGKCSNPAVVFVTRKNRQVCANPEKKWVREYINSLEMS |  | block of HIV entry into the cells (HIV): block HIV entry into the cells |
